According to patent US5366983A, “Use of quaternary ammonium compounds to remove salmonella contamination from meat products” (The Board of Trustees of The University of Arkansas, priority 1992, dated 1994):

System: Salmonella typhimurium ATCC 14028 attached to human buccal epithelial cells
Assay: microbe, parasite or virus in culture
Assay type: cell-based
Details: Table A-3
Method: Additional studies on the detachment of Salmonella typhimurium from human buccal epithelial cells were conducted.
S. typhimurium ATCC 14028 was grown in nutrient broth (BBL Microbiology system, Cockeysville, Md.) for 16 hours at 37° C. The cells were centrifuged and washed twice with 0.008 M phosphate buffered saline (PBS, at pH 7.2) at 4500 rpm for 10 minutes. The last suspension was diluted in PBS to obtain a cell concentration 0.5 to 1×10^9 cells/ml using spectrophotometric measurement. Human epithelial cells were obtained by swabbing the buccal surface of a healthy, nonsmoking donor. […] The number of living cells was estimated and the suspension was diluted to 0.5 to 1×10^5 cells/ml.
The suspension of the human buccal cells was mixed with an equal volume of the bacterial suspension (3.0 ml), or PBS (0.8 ml) in 10 ml Erlenmeyer flasks. Contact was allowed for 1.5 hours at 35° C. under agitation. After incubation, 1.0 ml of each suspension was transferred into an Eppendorff vial, centrifuged at 3000 rpm for 10 minutes, and washed with PBS. The cells were treated with 1.0 ml PBS or 1.0 ml of the test chemical solution. Treatment was performed by suspending, gently vortexing, and centrifuging at 1500 rpm for 10 minutes. After the treatment, the cells were washed and placed on microscopic slides for examination.
EC50 represents the inverse measurement of the potency of a compound. EC50 values were determined by a nonlinear regression of the detachment effect versus the cationic surfactant concentration data from Table A-3.

CCCCCCCCCCCCCCCC[n+]1ccccc1 [CPC, cetylpyridinium chloride]
adherence, mean value of attached bacteria (2.5 ug/ml): 73 ± 55
adherence, mean value of attached bacteria (5 ug/ml): 42 ± 22
adherence, mean value of attached bacteria (10 ug/ml): 28 ± 10
